Assays:
[1] = tested on: γ-glutamylcysteine transferase; experiment: KM of γ-glutamylcysteine transferase for its substrates; assay type: biochemical, Silene cucubalus; details: 30° C. and pH=7.8
[2] = tested on: γ-glutamylcysteine transferase

| Compound | Km [1] | reversibility of the inhibition ([2]; after removal of EDTA and addition of heavy metal ions) | inhibition in the presence of EDTA ([2]; in the presence of ethylenediaminetetraacetic acid) |
| --- | --- | --- | --- |
| Cc1c(C)n2c(CSC[C@H](NC(=O)CC[C@H](N)C(=O)O)C(=O)NCC(=O)O)c(C)c(=O)n2c1=O [glutathione S-biman] | 1 mM |  |  |
| O=C(O)CN(CCN(CC(=O)O)CC(=O)O)CC(=O)O [ethylenediaminetetraacetic acid (EDTA), ethylenediaminetetraacetic acid] |  | reversible | complete inhibition |
| N[C@@H](CCC(=O)N[C@@H](CS)C(=O)NCC(=O)O)C(=O)O [glutathione] | 6.8 mM |  |  |

Source: patent publication US5116749A, “γ-glutamylcysteine transferase” (Consortium fur Elektrochemische Industrie GmbH, priority 1988, dated 1992)
